Data taken from ChEMBL document CHEMBL1201862, “PubChem BioAssay data set” (2004).
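Five concentrations, 48 hours, 96-well plates. The concentration for 50% growth inhibition is given as GI50.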 Active and inactive are the calls of the source. Cut-off read from the data, not from the text of the source: active = GI50 up to about 1.1 µM and inactive = higher.

How the values were obtained:
Test in all cases: NCI-60 cell line screen, 48 h
COLO 205 = test system: COLO 205
OVCAR-4 = test system: OVCAR-4
HL-60 = test system: HL-60
LOX IMVI = test system: LOX IMVI
NCI-H522 = test system: NCI-H522
NCI-H226 = test system: NCI-H226
OVCAR-8 = test system: OVCAR-8
RXF 631 = test system: RXF 631
HCC 2998 = test system: HCC 2998
HCT-116 = test system: HCT-116
HT-29 = test system: HT-29
IGROV-1 = test system: IGROV-1
SF-268 = test system: SF-268
OVCAR-3 = test system: OVCAR-3
KM12 = test system: KM12
Malme-3M = test system: Malme-3M
SK-OV-3 = test system: SK-OV-3
SK-MEL-2 = test system: SK-MEL-2
A498 = test system: A498
DMS-114 = test system: DMS-114
MOLT-4 = test system: MOLT-4
NCI-H23 = test system: NCI-H23
SNB-78 = test system: SNB-78
HCT-15 = test system: HCT-15
NCI-H460 = test system: NCI-H460
HOP-62 = test system: HOP-62
M19-MEL = test system: M19-MEL
UACC-257 = test system: UACC-257
DLD-1 = test system: DLD-1
SNB-19 = test system: SNB-19
OVCAR-5 = test system: OVCAR-5
DMS-273 = test system: DMS-273
LXFL 529 = test system: LXFL 529
ACHN = test system: ACHN
U-251 = test system: U-251
786-0 = test system: 786-0
XF498 = test system: XF498
A549 = test system: A549
RXF 393 = test system: RXF 393
K562 = test system: K562
SF-539 = test system: SF-539
SN12C = test system: SN12C
SR = test system: SR
SK-MEL-28 = test system: SK-MEL-28
EKVX = test system: EKVX
TK-10 = test system: TK-10
M14 = test system: M14
UO-31 = test system: UO-31
SNB-75 = test system: SNB-75
SK-MEL-5 = test system: SK-MEL-5
SW-620 = test system: SW-620
CCRF-CEM = test system: CCRF-CEM
HOP-92 = test system: HOP-92
CAKI-1 = test system: CAKI-1
KM-20L2 = test system: KM-20L2
RPMI-8226 = test system: RPMI-8226
SF-295 = test system: SF-295
UACC-62 = test system: UACC-62

In the case of `Cn1cc2ccccc2c1-c1nc(F)nc(Nc2ccc(N)cc2)n1`, the GI50 (COLO 205) is reported as > 10 µM (inactive), the GI50 (OVCAR-4) is reported as 23.1 µM (inactive) and the GI50 (HL-60) is reported as 22.3 µM (inactive). The GI50 (LOX IMVI) was 12.4 µM (inactive), the GI50 (NCI-H522) was 14.4 µM (inactive) and the GI50 (NCI-H226) was 16.5 µM (inactive). The GI50 (OVCAR-8) was 21 µM (inactive), the GI50 (RXF 631) was 18.3 µM (inactive) and the GI50 (HCC 2998) was 18 µM (inactive). For the same compound, the GI50 (HCT-116) was 15.5 µM (inactive), the GI50 (HT-29) was 21.5 µM (inactive) and the GI50 (IGROV-1) was 12.7 µM (inactive). For the same compound, the GI50 (SF-268) was 20 µM (inactive), the GI50 (OVCAR-3) was 20.8 µM (inactive) and the GI50 (KM12) was 14 µM (inactive). For the same compound, the GI50 (Malme-3M) was 14.4 µM (inactive), the GI50 (SK-OV-3) was 11.6 µM (inactive) and the GI50 (SK-MEL-2) was 13.3 µM (inactive). For the same compound, the GI50 (A498) was 6.93 µM (inactive), the GI50 (DMS-114) was 17.7 µM (inactive) and the GI50 (MOLT-4) was 17.5 µM (inactive). The GI50 (NCI-H23) was 15.8 µM (inactive), the GI50 (SNB-78) was 15.2 µM (inactive) and the GI50 (HCT-15) was 4.97 µM. For the same compound, the GI50 (NCI-H460) was 13.5 µM (inactive), the GI50 (HOP-62) was 16.6 µM (inactive) and the GI50 (M19-MEL) was 11.9 µM (inactive). For the same compound, the GI50 (UACC-257) was 17.3 µM (inactive), the GI50 (DLD-1) was 13 µM (inactive) and the GI50 (SNB-19) was 29.3 µM (inactive). The GI50 (OVCAR-5) was 26.4 µM (inactive), the GI50 (DMS-273) was 10.2 µM (inactive) and the GI50 (LXFL 529) was 16 µM (inactive). The GI50 (ACHN) was 23.3 µM (inactive), the GI50 (U-251) was 8.28 µM (inactive) and the GI50 (786-0) was 22.3 µM (inactive). The GI50 (XF498) was 12.5 µM (inactive), the GI50 (A549) was 18.1 µM (inactive) and the GI50 (RXF 393) was 15.3 µM (inactive). The GI50 (K562) was 8.63 µM (inactive), the GI50 (SF-539) was 15.8 µM (inactive) and the GI50 (SN12C) was 17.2 µM (inactive). For the same compound, the GI50 (SR) was 16.8 µM (inactive), the GI50 (SK-MEL-28) was 15.5 µM (inactive) and the GI50 (EKVX) was 23.3 µM (inactive). The GI50 (TK-10) was 34.3 µM (inactive), the GI50 (M14) was 13.6 µM (inactive) and the GI50 (UO-31) was 17.3 µM (inactive). The GI50 (SNB-75) was 11.9 µM (inactive), the GI50 (SK-MEL-5) was 11.5 µM (inactive) and the GI50 (SW-620) was 14.8 µM (inactive). The GI50 (CCRF-CEM) was 12.7 µM (inactive), the GI50 (HOP-92) was 15.1 µM (inactive) and the GI50 (CAKI-1) was 15 µM (inactive). The GI50 (KM-20L2) was 18 µM (inactive), the GI50 (RPMI-8226) was 13.3 µM (inactive) and the GI50 (SF-295) was 16.2 µM (inactive).
In the case of `C=C1C=CC2(Br)OC3CC(C)(Cl)C(Br)CC13C2(C)C` (stereo not drawn), the GI50 (COLO 205) is reported as 16.1 µM (inactive), the GI50 (OVCAR-4) is reported as 30.1 µM (inactive) and the GI50 (HL-60) is reported as 15.2 µM (inactive). The GI50 (LOX IMVI) was 18.9 µM (inactive), the GI50 (NCI-H522) was 15.4 µM (inactive) and the GI50 (NCI-H226) was 19.1 µM (inactive). The GI50 (OVCAR-8) was 30.7 µM (inactive), the GI50 (RXF 631) was 23 µM (inactive) and the GI50 (HCC 2998) was 20.4 µM (inactive). The GI50 (HCT-116) was 15 µM (inactive), the GI50 (HT-29) was 18.1 µM (inactive) and the GI50 (IGROV-1) was 28.9 µM (inactive). For the same compound, the GI50 (SF-268) was 30.1 µM (inactive), the GI50 (OVCAR-3) was 20 µM (inactive) and the GI50 (KM12) was 24.4 µM (inactive). For the same compound, the GI50 (Malme-3M) was 18.2 µM (inactive), the GI50 (SK-OV-3) was 30.5 µM (inactive) and the GI50 (SK-MEL-2) was 17.6 µM (inactive). The GI50 (A498) was 22.3 µM (inactive), the GI50 (DMS-114) was 17.2 µM (inactive) and the GI50 (MOLT-4) was 16.9 µM (inactive). For the same compound, the GI50 (NCI-H23) was 19.1 µM (inactive), the GI50 (SNB-78) was 22.4 µM (inactive) and the GI50 (HCT-15) was 23 µM. The GI50 (NCI-H460) was 22 µM (inactive), the GI50 (HOP-62) was 23.1 µM (inactive) and the GI50 (M19-MEL) was 21.5 µM (inactive). For the same compound, the GI50 (UACC-257) was 18.5 µM (inactive), the GI50 (DLD-1) was 31.6 µM (inactive) and the GI50 (UACC-62) was 17.8 µM (inactive). The GI50 (SNB-19) was 27 µM (inactive), the GI50 (OVCAR-5) was 17.1 µM (inactive) and the GI50 (DMS-273) was 35.8 µM (inactive). The GI50 (LXFL 529) was 22.5 µM (inactive), the GI50 (ACHN) was 23.6 µM (inactive) and the GI50 (U-251) was 18.8 µM (inactive). The GI50 (786-0) was 33.8 µM (inactive), the GI50 (XF498) was 13.3 µM (inactive) and the GI50 (A549) was 26.4 µM (inactive). For the same compound, the GI50 (K562) was 17.9 µM (inactive), the GI50 (SF-539) was 18.5 µM (inactive) and the GI50 (SN12C) was 18.9 µM (inactive). The GI50 (SK-MEL-28) was 20 µM (inactive), the GI50 (EKVX) was 24.5 µM (inactive) and the GI50 (TK-10) was 37.2 µM (inactive). The GI50 (M14) was 21.2 µM (inactive), the GI50 (UO-31) was 20.7 µM (inactive) and the GI50 (SNB-75) was 25.2 µM (inactive). The GI50 (SK-MEL-5) was 17.3 µM (inactive), the GI50 (SW-620) was 24.2 µM (inactive) and the GI50 (CCRF-CEM) was 25.1 µM (inactive). The GI50 (HOP-92) was 21.2 µM (inactive), the GI50 (CAKI-1) was 29.5 µM (inactive) and the GI50 (KM-20L2) was 21.9 µM (inactive). For the same compound, the GI50 (RPMI-8226) was 23.2 µM (inactive) and the GI50 (SF-295) was 20.4 µM (inactive).
